Measured values from patent US9346815B2, “5-chloro-2-difluoromethoxyphenyl pyrazolopyrimidine compounds, compositions and methods of use thereof” (Genentech, Inc., priority 2014, dated 2016).
Read-outs that look alike come from different tables or passages of the source.

What was measured:
[1] = system: JAK1-dependent STAT6 phosphorylation downstream of IL-13 stimulation in BEAS-2B human bronchial epithelial cells; test: JAK1 pathway assay in BEAS-2B cells (IL-13-pSTAT6, MSD); assay type: cell-based; details: read-out: IL13-pSTAT6 EC50 (uM)_BEAS-2B
Outline: (§1)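 BEAS-2B: 1 h, complete growth medium, 100,000 cells/well. TF-1: 30 min, serum-free OptiMEM after overnight GM-CSF starvation, 300,000 cells/well. EC50 reported.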

[2] = biological target: isolated recombinant JAK2 kinase domain (Homo sapiens (Human), UniProt O60674); test: JAK2 enzyme assay (Caliper LabChip, peptide phosphorylation); assay type: biochemical; details: 25 μM ATP
[3] = system: JAK1-dependent STAT6 phosphorylation downstream of IL-13 stimulation in TF-1 human erythroleukemia cells; test: JAK1 pathway assay in TF-1 cells (IL-13-pSTAT6, MSD); assay type: cell-based; details: read-out: IL13-pSTAT6 EC50_TF-1
Outline: as §1

[4] = biological target: isolated recombinant JAK1 kinase domain (Homo sapiens (Human), UniProt P23458); test: JAK1 enzyme assay (Caliper LabChip, peptide phosphorylation); assay type: biochemical; details: isolated recombinant JAK1 kinase domain, 25 μM ATP
Sequence of isolated recombinant JAK1 kinase domain (P23458 875-1153): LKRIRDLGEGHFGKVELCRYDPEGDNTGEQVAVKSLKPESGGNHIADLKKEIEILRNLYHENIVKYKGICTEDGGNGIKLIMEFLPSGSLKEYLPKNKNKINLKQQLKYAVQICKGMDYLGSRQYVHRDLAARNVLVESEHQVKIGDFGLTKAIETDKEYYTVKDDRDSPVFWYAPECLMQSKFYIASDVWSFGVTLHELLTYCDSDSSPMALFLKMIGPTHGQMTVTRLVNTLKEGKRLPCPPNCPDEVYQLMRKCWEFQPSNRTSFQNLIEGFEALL

Sequence of isolated recombinant JAK2 kinase domain (O60674 849-1124): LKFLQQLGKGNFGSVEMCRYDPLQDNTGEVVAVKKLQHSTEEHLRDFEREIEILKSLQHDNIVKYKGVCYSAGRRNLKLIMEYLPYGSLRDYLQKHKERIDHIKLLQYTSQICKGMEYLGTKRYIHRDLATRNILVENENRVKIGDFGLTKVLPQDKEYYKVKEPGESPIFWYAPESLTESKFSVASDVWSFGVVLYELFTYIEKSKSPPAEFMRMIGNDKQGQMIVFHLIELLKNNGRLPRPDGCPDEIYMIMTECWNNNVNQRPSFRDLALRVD

`CNC(=O)CCCN1CCC(n2cc(NC(=O)c3c(N)nn4cccnc34)c(-c3cc(Cl)ccc3OC(F)F)n2)CC1` [Example 149, 2-amino-N-[3-[5-chloro-2-(difluoromethoxy)phenyl]-1-[1-[4-(methylamino)-4-oxo-butyl]-4-piperidyl]pyrazol-4-yl]pyrazolo[1,5-a]pyrimidine-3-carboxamide] gave an EC50 [1] of 0.0198 µM, a Ki [2] of 0.2 nM and an EC50 ([3]; Homo sapiens, TF-1, TF-1 cells) of 8.3 nM. It also gave a Ki [4] of 0.81 nM.
`CCN(Cc1cccnc1)C(=O)Cn1cc(NC(=O)c2cnn3cccnc23)c(-c2cc(Cl)ccc2OC(F)F)n1` [Example 301, N-[3-[5-chloro-2-(difluoromethoxy)phenyl]-1-[2-[ethyl(3-pyridylmethyl)amino]-2-oxo-ethyl]pyrazol-4-yl]pyrazolo[1,5-a]pyrimidine-3-carboxamide] was tested, and the EC50 [1] was 0.0095 µM, the Ki [2] was 0.36 nM and the EC50 ([3]; Homo sapiens, TF-1, TF-1 cells) was 3.4 nM. The Ki [4] was 0.33 nM.
With `O=C(Nc1cn(CC(=O)N2CCC(N(CCC(F)(F)F)Cc3ccccc3)CC2)nc1-c1cc(Cl)ccc1OC(F)F)c1cnn2cccnc12` [Example 118, N-[1-[2-[4-[benzyl(3,3,3-trifluoropropyl)amino]-1-piperidyl]-2-oxo-ethyl]-3-[5-chloro-2-(difluoromethoxy)phenyl]pyrazol-4-yl]pyrazolo[1,5-a]pyrimidine-3-carboxamide] the EC50 [1] was 0.303 µM, the Ki [2] was 4.45 nM and the EC50 ([3]; Homo sapiens, TF-1, TF-1 cells) was 100 nM. It also gave a Ki [4] of 2.57 nM.
For `CC(=O)N1CCC(N2CCC(n3cc(NC(=O)c4c(N)nn5cccnc45)c(-c4cc(Cl)ccc4OC(F)F)n3)CC2)CC1` [Example 144, N-[1-[1-(1-acetyl-4-piperidyl)-4-piperidyl]-3-[5-chloro-2-(difluoromethoxy)phenyl]pyrazol-4-yl]-2-amino-pyrazolo[1,5-a]pyrimidine-3-carboxamide], the EC50 [1] was 0.0213 µM, the Ki [2] was 0.17 nM and the EC50 ([3]; Homo sapiens, TF-1, TF-1 cells) was 12.8 nM. It also gave a Ki [4] of 0.54 nM.
In the case of `CN(CCC#N)C1CCN(c2nc(-c3cc(Cl)ccc3OC(F)F)c(NC(=O)c3cnn4cccnc34)s2)CC1` [Example 189, Pyrazolo[1,5-a]pyrimidine-3-carboxylic acid (4-(5-chloro-2-difluoromethoxy-phenyl)-2-{4-[(2-cyano-ethyl)-methyl-amino]-piperidin-1-yl}-thiazol-5-yl)-amide], the EC50 [1] is reported as 0.02 µM, the Ki [2] is reported as 1.61 nM and the EC50 ([3]; Homo sapiens, TF-1, TF-1 cells) is reported as 5.3 nM. The Ki [4] was 2.59 nM.
With `CC(C)CN1C[C@@H]2CN(C(=O)Cn3cc(NC(=O)c4cnn5cccnc45)c(-c4cc(Cl)ccc4OC(F)F)n3)C[C@@H]2C1` [Example 28, N-[1-[2-[(3aS,6aR)-2-isobutyl-1,3,3a,4,6,6a-hexahydropyrrolo[3,4-c]pyrrol-5-yl]-2-oxo-ethyl]-3-[5-chloro-2-(difluoromethoxy)phenyl]pyrazol-4-yl]pyrazolo[1,5-a]pyrimidine-3-carboxamide] the EC50 [1] was 0.177 µM, the Ki [2] was 0.84 nM and the EC50 ([3]; Homo sapiens, TF-1, TF-1 cells) was 3.5 nM. It also gave a Ki [4] of 0.82 nM.
`CN1CC2CN(C(=O)Cn3cc(NC(=O)c4c(N)nn5cccnc45)c(-c4cc(Cl)ccc4OC(F)F)n3)CC2C1` (centres unmarked) [Example 9, 2-amino-N-[3-[5-chloro-2-(difluoromethoxy)phenyl]-1-[2-(2-methyl-1,3,3a,4,6,6a-hexahydropyrrolo[3,4-c]pyrrol-5-yl)-2-oxo-ethyl]pyrazol-4-yl]pyrazolo[1,5-a]pyrimidine-3-carboxamide] was tested, and the EC50 [1] was 0.554 µM, the Ki [2] was 0.28 nM and the EC50 ([3]; Homo sapiens, TF-1, TF-1 cells) was 15.6 nM. The Ki [4] was 0.71 nM.
For `CCOC(=O)[C@@H](N)CCn1cc(NC(=O)c2cnn3cccnc23)c(-c2cc(Cl)ccc2OC(F)F)n1` [Example 309, ethyl (2S)-2-amino-4-[3-[5-chloro-2-(difluoromethoxy)phenyl]-4-(pyrazolo[1,5-a]pyrimidine-3-carbonylamino)pyrazol-1-yl]butanoate], the EC50 [1] was 0.049 µM, the Ki [2] was 0.47 nM and the EC50 ([3]; Homo sapiens, TF-1, TF-1 cells) was 16.3 nM. It also gave a Ki [4] of 1.34 nM.
For `CN1CC[C@H]2[C@H](CCN2C(=O)Cn2cc(NC(=O)c3cnn4cccnc34)c(-c3cc(Cl)ccc3OC(F)F)n2)C1` [Example 48, N-[1-[2-[(3aR,7aS)-5-methyl-3,3a,4,6,7,7a-hexahydro-2H-pyrrolo[3,2-c]pyridin-1-yl]-2-oxo-ethyl]-3-[5-chloro-2-(difluoromethoxy)phenyl]pyrazol-4-yl]pyrazolo[1,5-a]pyrimidine-3-carboxamide], the EC50 [1] was 0.0594 µM, the Ki [2] was 1.85 nM and the EC50 ([3]; Homo sapiens, TF-1, TF-1 cells) was 13.7 nM. For the same molecule, the Ki [4] was 0.94 nM.
Work on `CNC1CCN(C(=O)Cn2cc(NC(=O)c3cnn4cccnc34)c(-c3cc(Cl)ccc3OC(F)F)n2)CC1` [Example 83, N-[3-[5-chloro-2-(difluoromethoxy)phenyl]-1-[2-[4-(methylamino)-1-piperidyl]-2-oxo-ethyl]pyrazol-4-yl]pyrazolo[1,5-a]pyrimidine-3-carboxamide] yielded an EC50 [1] of 0.143 µM, a Ki [2] of 1.59 nM and an EC50 ([3]; Homo sapiens, TF-1, TF-1 cells) of 42.3 nM. The Ki [4] was 1.07 nM.
In the case of `CN[C@@H]1CCC[C@H](n2cc(NC(=O)c3c(N)nn4cccnc34)c(-c3cc(Cl)ccc3OC(F)F)n2)C1` [Example 296, 2-amino-N-[3-[5-chloro-2-(difluoromethoxy)phenyl]-1-[(1S,3R)-3-(methylamino)cyclohexyl]pyrazol-4-yl]pyrazolo[1,5-a]pyrimidine-3-carboxamide], the EC50 [1] is reported as 0.0283 µM, the Ki [2] is reported as 0.21 nM and the EC50 ([3]; Homo sapiens, TF-1, TF-1 cells) is reported as 5.6 nM. For the same molecule, the Ki [4] was 0.26 nM.
Molecule `O=C(Nc1cn(CC(=O)N2CCC(NC(c3ccccc3)C(F)(F)F)CC2)nc1-c1cc(Cl)ccc1OC(F)F)c1cnn2cccnc12` (centres unmarked) [Example 132, N-[3-[5-chloro-2-(difluoromethoxy)phenyl]-1-[2-oxo-2-[4-[(2,2,2-trifluoro-1-phenyl-ethyl)amino]-1-piperidyl]ethyl]pyrazol-4-yl]pyrazolo[1,5-a]pyrimidine-3-carboxamide] has an EC50 [1] of 0.0973 µM, a Ki [2] of 1.27 nM and an EC50 ([3]; Homo sapiens, TF-1, TF-1 cells) of 3.1 nM. For the same molecule, the Ki [4] was 0.57 nM.
Molecule `CN1CC[C@@H]2[C@@H](CCN2C(=O)Cn2cc(NC(=O)c3cnn4cccnc34)c(-c3cc(Cl)ccc3OC(F)F)n2)C1` [Example 45, N-[1-[2-[(3aS,7aR)-5-methyl-3,3a,4,6,7,7a-hexahydro-2H-pyrrolo[3,2-c]pyridin-1-yl]-2-oxo-ethyl]-3-[5-chloro-2-(difluoromethoxy)phenyl]pyrazol-4-yl]pyrazolo[1,5-a]pyrimidine-3-carboxamide] has an EC50 [1] of 0.0245 µM, a Ki [2] of 1.78 nM and an EC50 ([3]; TF-1 cells) of 7.1 nM. For the same molecule, the Ki [4] was 0.74 nM.
`N=C(N)CCn1cc(NC(=O)c2cnn3cccnc23)c(-c2cc(Cl)ccc2OC(F)F)n1` [Example 304, N-[1-(2-carbamimidoylethyl)-3-[5-chloro-2-(difluoromethoxy)phenyl]-1H-pyrazol-4-yl]pyrazolo[1,5-a]pyrimidine-3-carboxamide] showed an EC50 [1] of 0.0469 µM, a Ki [2] of 0.39 nM and an EC50 ([3]; Homo sapiens, TF-1, TF-1 cells) of 5.9 nM. The Ki [4] was 0.78 nM.
